Assay results: patent US11034672B1, “Tyrosine kinase inhibitor compositions, methods of making and methods of use” (Black Diamond Therapeutics, Inc., priority 2018, dated 2021)

Experiments:
Format in all cases: cell-based
[1] = biological target: T1, HER2 YVMA (Homo sapiens, UniProt P04626, INS775YVMA); test: Activity for inhibiting HER2 (Table B), HER2 YVMA; conditions: read-out: HER2 YVMA, potency code (IC50)
T1 construct: expressed in transfected cells; host or cells: BaF3 (murine pro-B)
Procedure: (§1) EC50 values were determined with the same application.

[2] = biological target: T2, HER2 S310F (Homo sapiens, UniProt P04626, S310F); test: Activity for inhibiting HER2 (Table B), HER2 S310F; conditions: read-out: HER2 S310F, potency code (IC50)
T2 construct: expressed in transfected cells; host or cells: BaF3 (murine pro-B)
Procedure: as §1

[3] = biological target: T1, HER2 YVMA; test: BaF3 cell proliferation assay, HER2 YVMA (Table B); conditions: potency code, 3 days, CellTiterGlo, read-out: HER2 YVMA (Activity for Inhibiting HER2)
[4] = biological target: T2, HER2 S310F; test: BaF3 cell proliferation assay, HER2 S310F (Table B); conditions: potency code, 3 days, CellTiterGlo, read-out: HER2 S310F (Activity for Inhibiting HER2)
[5] = biological target: T3, EGFR WT (Homo sapiens, UniProt P00533); test: Activity for inhibiting EGFR (Table A), EGFR WT; conditions: read-out: EGFR WT, potency code (IC50)
[6] = biological target: T4, EGFR V3 (Homo sapiens, UniProt P00533, DELINS30-297G); test: BaF3 cell proliferation assay, EGFR V3 (Table A); conditions: potency code, 3 days, CellTiterGlo, read-out: EGFR V3 (Activity for Inhibiting EGFR)
T4 construct: expressed in transfected cells; host or cells: BaF3 (murine pro-B), retroviral pMXs-IRES-Blasticidin
Summary of the method: (§2)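 EC50s reflect growth of IL-3-independent BaF3 lines whose proliferation depends on the introduced human receptor variant. Lines were produced by retroviral infection and one week of 10 μg/ml Blasticidin selection.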

[7] = biological target: T3, EGFR WT; test: BaF3 cell proliferation assay, EGFR WT (Table A); conditions: potency code, 3 days, CellTiterGlo, read-out: EGFR WT (Activity for Inhibiting EGFR)
Summary of the method: as §2

[8] = biological target: T4, EGFR V3; test: Activity for inhibiting EGFR (Table A), EGFR V3 (EGFR-Viii); conditions: read-out: EGFR V3, potency code (IC50)

T3 sequence (P00533 25-1210 N540K): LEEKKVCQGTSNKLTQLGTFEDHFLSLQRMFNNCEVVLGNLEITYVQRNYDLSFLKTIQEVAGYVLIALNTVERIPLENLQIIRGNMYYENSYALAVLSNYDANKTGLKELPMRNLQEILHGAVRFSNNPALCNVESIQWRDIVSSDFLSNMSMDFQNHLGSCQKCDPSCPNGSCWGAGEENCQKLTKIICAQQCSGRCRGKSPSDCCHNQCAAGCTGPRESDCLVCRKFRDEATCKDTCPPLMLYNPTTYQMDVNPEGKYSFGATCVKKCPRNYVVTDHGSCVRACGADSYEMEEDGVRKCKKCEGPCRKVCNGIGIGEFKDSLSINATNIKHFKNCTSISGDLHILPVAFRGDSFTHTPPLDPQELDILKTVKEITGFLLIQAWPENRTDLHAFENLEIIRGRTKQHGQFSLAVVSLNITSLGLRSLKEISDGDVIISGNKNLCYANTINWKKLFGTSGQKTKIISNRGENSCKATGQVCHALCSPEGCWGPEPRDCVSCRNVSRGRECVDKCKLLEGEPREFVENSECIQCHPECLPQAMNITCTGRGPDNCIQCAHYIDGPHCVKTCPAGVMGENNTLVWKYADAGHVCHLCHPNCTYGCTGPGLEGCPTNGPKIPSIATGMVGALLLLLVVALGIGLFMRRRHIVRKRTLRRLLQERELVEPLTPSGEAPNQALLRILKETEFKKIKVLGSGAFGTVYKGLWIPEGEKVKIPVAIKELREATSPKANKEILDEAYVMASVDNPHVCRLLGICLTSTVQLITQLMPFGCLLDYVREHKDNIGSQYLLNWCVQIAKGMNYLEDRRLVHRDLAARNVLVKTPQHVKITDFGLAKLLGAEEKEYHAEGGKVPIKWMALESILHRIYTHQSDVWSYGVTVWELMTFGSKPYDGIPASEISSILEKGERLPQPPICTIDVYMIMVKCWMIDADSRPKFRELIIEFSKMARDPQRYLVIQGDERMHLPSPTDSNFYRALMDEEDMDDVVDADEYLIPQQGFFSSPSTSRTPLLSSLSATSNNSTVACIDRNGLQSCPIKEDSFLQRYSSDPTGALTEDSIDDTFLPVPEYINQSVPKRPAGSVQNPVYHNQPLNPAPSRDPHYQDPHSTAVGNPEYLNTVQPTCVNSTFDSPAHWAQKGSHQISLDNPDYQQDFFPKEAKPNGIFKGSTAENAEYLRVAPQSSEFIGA
T4 sequence (P00533 with tags, fused parts or gaps DELINS30-297G): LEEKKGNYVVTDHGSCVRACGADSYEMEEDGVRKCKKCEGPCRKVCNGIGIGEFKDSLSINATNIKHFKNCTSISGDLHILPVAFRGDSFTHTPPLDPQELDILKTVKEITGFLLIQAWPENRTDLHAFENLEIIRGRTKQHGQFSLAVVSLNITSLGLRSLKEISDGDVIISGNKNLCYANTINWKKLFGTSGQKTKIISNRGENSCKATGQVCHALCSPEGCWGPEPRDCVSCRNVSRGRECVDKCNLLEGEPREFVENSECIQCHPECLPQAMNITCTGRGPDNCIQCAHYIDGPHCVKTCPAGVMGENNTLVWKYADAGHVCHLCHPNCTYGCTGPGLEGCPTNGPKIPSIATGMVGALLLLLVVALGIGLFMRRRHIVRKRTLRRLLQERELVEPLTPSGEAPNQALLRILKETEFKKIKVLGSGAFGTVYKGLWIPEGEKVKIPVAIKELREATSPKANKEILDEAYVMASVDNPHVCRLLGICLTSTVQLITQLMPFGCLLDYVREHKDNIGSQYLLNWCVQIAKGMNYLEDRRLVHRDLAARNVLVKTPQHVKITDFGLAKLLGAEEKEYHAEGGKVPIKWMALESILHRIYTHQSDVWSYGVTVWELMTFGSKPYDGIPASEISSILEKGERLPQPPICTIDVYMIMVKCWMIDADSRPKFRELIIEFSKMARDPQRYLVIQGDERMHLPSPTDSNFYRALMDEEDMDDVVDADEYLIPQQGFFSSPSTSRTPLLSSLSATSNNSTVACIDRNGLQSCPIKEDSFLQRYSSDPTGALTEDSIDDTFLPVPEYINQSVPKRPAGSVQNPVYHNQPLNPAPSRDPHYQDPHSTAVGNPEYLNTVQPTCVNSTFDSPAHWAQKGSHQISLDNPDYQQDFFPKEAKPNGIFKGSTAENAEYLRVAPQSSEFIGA
T1 sequence (P04626 with tags, fused parts or gaps INS775YVMA): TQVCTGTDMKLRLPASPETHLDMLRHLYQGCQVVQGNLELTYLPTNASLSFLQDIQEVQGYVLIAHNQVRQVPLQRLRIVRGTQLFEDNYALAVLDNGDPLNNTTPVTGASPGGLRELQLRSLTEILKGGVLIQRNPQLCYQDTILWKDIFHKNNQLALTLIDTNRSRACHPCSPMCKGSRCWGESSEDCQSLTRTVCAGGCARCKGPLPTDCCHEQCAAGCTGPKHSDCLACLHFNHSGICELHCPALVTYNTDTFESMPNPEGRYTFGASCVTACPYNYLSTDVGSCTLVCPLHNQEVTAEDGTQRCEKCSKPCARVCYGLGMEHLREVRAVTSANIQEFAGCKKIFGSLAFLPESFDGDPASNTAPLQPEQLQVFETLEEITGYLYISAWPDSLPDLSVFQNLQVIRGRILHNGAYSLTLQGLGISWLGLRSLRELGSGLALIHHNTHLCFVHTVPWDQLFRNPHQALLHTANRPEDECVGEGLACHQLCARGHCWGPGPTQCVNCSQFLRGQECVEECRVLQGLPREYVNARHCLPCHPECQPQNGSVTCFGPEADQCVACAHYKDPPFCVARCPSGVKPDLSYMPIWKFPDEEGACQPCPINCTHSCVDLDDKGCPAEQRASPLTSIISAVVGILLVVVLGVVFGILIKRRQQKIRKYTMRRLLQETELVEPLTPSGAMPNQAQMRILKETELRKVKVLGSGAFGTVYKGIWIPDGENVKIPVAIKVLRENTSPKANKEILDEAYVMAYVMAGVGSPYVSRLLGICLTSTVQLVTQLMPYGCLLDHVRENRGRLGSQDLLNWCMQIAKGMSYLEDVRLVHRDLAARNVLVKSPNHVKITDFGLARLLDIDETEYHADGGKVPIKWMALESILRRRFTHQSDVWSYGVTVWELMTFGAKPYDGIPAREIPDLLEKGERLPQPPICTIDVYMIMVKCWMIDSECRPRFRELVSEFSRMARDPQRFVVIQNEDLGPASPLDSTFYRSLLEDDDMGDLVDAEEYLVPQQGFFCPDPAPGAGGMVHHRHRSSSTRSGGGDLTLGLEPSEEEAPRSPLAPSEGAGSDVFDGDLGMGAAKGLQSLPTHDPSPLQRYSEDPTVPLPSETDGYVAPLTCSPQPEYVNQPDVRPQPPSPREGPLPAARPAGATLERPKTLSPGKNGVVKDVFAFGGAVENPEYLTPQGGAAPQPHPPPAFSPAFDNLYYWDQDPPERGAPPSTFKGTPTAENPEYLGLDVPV
T2 sequence (P04626 23-1255 S310F): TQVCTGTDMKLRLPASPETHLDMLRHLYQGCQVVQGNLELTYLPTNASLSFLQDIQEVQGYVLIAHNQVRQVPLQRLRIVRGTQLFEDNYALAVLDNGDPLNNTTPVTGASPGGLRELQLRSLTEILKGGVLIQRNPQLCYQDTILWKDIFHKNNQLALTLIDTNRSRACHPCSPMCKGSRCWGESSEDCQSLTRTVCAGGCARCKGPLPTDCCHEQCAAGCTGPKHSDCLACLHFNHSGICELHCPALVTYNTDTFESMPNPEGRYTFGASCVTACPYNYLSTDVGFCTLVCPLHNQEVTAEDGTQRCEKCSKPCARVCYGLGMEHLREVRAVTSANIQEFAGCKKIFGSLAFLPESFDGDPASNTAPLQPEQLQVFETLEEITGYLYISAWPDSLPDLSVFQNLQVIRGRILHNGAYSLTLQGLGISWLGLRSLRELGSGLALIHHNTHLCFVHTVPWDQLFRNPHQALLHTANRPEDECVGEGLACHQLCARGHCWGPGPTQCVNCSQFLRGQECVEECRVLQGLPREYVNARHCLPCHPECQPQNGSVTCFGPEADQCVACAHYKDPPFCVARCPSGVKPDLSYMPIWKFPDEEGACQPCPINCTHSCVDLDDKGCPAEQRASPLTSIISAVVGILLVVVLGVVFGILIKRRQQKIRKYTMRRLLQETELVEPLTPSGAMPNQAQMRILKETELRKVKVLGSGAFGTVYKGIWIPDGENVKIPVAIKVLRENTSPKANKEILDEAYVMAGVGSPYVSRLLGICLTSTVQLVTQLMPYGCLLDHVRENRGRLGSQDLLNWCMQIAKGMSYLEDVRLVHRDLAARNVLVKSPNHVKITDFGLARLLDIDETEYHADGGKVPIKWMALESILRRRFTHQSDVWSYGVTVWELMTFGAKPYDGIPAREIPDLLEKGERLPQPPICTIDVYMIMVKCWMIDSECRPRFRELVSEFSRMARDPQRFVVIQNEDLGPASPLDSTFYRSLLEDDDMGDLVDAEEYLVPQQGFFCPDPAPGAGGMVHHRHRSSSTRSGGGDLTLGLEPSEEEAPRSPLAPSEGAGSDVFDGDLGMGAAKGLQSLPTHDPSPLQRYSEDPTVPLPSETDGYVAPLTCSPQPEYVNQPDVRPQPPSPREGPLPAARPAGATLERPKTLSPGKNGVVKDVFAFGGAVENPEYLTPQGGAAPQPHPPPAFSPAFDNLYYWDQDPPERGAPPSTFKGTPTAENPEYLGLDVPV

SMILES	IC50 [1] [nM]	IC50 [2] [nM]	IC50 [3] [nM]	IC50 [4] [nM]	IC50 [5] [nM]	IC50 [6] [nM]	IC50 [7] [nM]	IC50 [8] [nM]
C=CC(=O)Nc1cc2c(Nc3ccc(OCc4cccc(C)n4)c(Cl)c3)ncnc2cc1OCCN1CCOCC1 [compound 128]	300 to 500	100 to 200	300 to 500	100 to 200	500 to 1000	100 to 200	500 to 1000	100 to 200
C=CC(=O)Nc1cc2c(Nc3ccc(OCc4cccc(C)n4)c(Cl)c3)ncnc2cc1OCCCN1CCOCC1 [compound 129]	100 to 200	30 to 50	100 to 200	30 to 50	500 to 1000	100 to 200	500 to 1000	100 to 200
C=CC(=O)Nc1cc2c(Nc3ccc(OCc4cccc(F)c4)c(Cl)c3)ncnc2cc1OCCN1CCN(C)CC1 [compound 130]	300 to 500	30 to 50	300 to 500	30 to 50	200 to 300	100 to 200	200 to 300	100 to 200
C=CC(=O)Nc1cc2c(Nc3cc(Cl)c(OCc4cccc(F)c4)cc3F)ncnc2cc1OCCCN1CC(OC)C1 [compound 131]	300 to 500	50 to 100	300 to 500	50 to 100	200 to 300	100 to 200	200 to 300	200 to 300
C=CC(=O)Nc1cc2c(Nc3ccc(OCc4cccc(C)n4)c(Cl)c3)ncnc2cc1OCCN1CC2CCC(C1)O2 [compound 132]	500 to 1000	300 to 500	500 to 1000	300 to 500	> 1000	300 to 500	> 1000	300 to 500
C=CC(=O)Nc1cc2c(Nc3cc(Cl)c(OCc4cccc(F)c4)cc3F)ncnc2cc1O[C@@H]1CCN(C)C1 [compound 133]	500 to 1000	50 to 100	500 to 1000	50 to 100	200 to 300	100 to 200	200 to 300	100 to 200
C=CC(=O)Nc1cc2c(Nc3cc(Cl)c(OCc4cccc(F)c4)cc3F)ncnc2cc1OCCN1CC(OC)C1 [compound 134]	300 to 500	30 to 50	300 to 500	30 to 50	200 to 300	50 to 100	200 to 300	50 to 100
C=CC(=O)Nc1cc2c(Nc3ccc(OCc4cccc(C)n4)c(Cl)c3)ncnc2cc1OCCN1CC(OC)C1 [compound 135]	300 to 500	100 to 200	300 to 500	100 to 200	300 to 500	50 to 100	300 to 500	50 to 100
CC#CC(=O)Nc1cc2c(Nc3cc(Cl)c(OCc4cccc(F)c4)cc3F)ncnc2cc1OCCCN1CC(OC)C1 [compound 136, N-(4-((5-chloro-2-fluoro-4-((3-fluorobenzyl)oxy)phenyl)amino)-7-(3-(3-methoxyazetidin-1-yl)propoxy)quinazolin-6-yl)but-2-ynamide]	100 to 200	30 to 50	100 to 200	30 to 50	100 to 200	100 to 200	100 to 200	100 to 200
C=CC(=O)Nc1cc2c(Nc3ccc(OCc4cccc(C)n4)c(Cl)c3)ncnc2cc1OCCN1CCN(C)CC1 [compound 137]	300 to 500	50 to 100	300 to 500	50 to 100	200 to 300	50 to 100	200 to 300	50 to 100
C=CC(=O)Nc1cc2c(Nc3ccc(OCc4cccc(C)n4)c(Cl)c3)ncnc2cc1OCCCN1CC(OC)C1 [compound 138]	50 to 100	30 to 50	50 to 100	30 to 50	100 to 200	50 to 100	100 to 200	50 to 100
C=CC(=O)Nc1cc2c(Nc3ccc(OCc4cccc(F)c4)c(Cl)c3)ncnc2cc1OCCN1CC2CCC(C1)O2 [compound 139]	100 to 200	30 to 50	100 to 200	30 to 50	500 to 1000	100 to 200	500 to 1000	100 to 200
C=CC(=O)Nc1cc2c(Nc3ccc(OCc4cccc(C)n4)c(Cl)c3)ncnc2cc1O[C@@H]1CCN(C)C1 [compound 140]	300 to 500	100 to 200	300 to 500	100 to 200	300 to 500	100 to 200	300 to 500	100 to 200
C=CC(=O)Nc1cc2c(Nc3ccc(OCc4cccc(F)c4)c(Cl)c3)ncnc2cc1O[C@@H]1CCN(C)C1 [compound 141]	300 to 500	30 to 50	300 to 500	30 to 50	100 to 200	100 to 200	100 to 200	100 to 200
C=CC(=O)Nc1cc2c(Nc3ccc(OCc4ccnc(C)c4)c(Cl)c3)ncnc2cc1OCCN1CCOCC1 [compound 142]	> 1000	300 to 500	> 1000	300 to 500	500 to 1000	100 to 200	500 to 1000	100 to 200
C=CC(=O)Nc1cc2c(Nc3ccc(OCc4cccc(F)c4)c(Cl)c3)ncnc2cc1OCCN1CC(OC)C1 [compound 143]	100 to 200	30 to 50	100 to 200	30 to 50	200 to 300	50 to 100	200 to 300	50 to 100
C=CC(=O)Nc1cc2c(Nc3ccc(OCc4cccc(F)c4)c(Cl)c3)ncnc2cc1OCCCN1CC(OC)C1 [compound 144]	100 to 200	30 to 50	100 to 200	30 to 50	100 to 200	100 to 200	100 to 200	100 to 200
C=CC(=O)Nc1cc2c(Nc3cc(Cl)c(OCc4cccc(F)c4)cc3F)ncnc2cc1OCCN1CCN(C)CC1 [compound 145]	200 to 300	30 to 50	200 to 300	30 to 50	100 to 200	50 to 100	100 to 200	50 to 100
CC#CC(=O)Nc1cc2c(Nc3cc(Cl)c(OCc4cccc(F)c4)cc3F)ncnc2cc1OCCN1CCN(C)CC1 [compound 146, N-(4-((5-chloro-2-fluoro-4-((3-fluorobenzyl)oxy)phenyl)amino)-7-(2-(4-methylpiperazin-1-yl)ethoxy)quinazolin-6-yl)but-2-ynamide]	50 to 100	20 to 30	50 to 100	20 to 30	50 to 100	50 to 100	50 to 100	50 to 100
